The values that follow come from patent US10294202B2, “Pyrrolidinones as herbicides” (FMC Corporation, priority 2013, dated 2019).

In test [1] the test system is crabgrass, large. The experiment in a line: Test A pre-/postemergence herbicide test. It is filed as in vivo, Digitaria sanguinalis. Put shortly: (§1)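 Visual 0–100 ratings (100 = complete control) made about 10 days after treatment, greenhouse-held plants compared with untreated controls. Treatments: postemergence sprays on one- to two-leaf plants (2–10 cm tall) and preemergence directed soil sprays after planting in loam–sand, chemicals formulated in non-phytotoxic solvent containing surfactant.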

The subject of a further test is morningglory. Nature of the test: Test A pre-/postemergence herbicide test. It counts as in vivo, Ipomoea spp. To be noted: for Plant response rating, Morningglory: 500 g ai/ha. An outline of the steps: as §1
Another test has as its system wheat. The experiment in a line: Test A pre-/postemergence herbicide test. It counts as in vivo, Triticum aestivum. Put shortly:
as §1

The next test has as its system barnyardgrass. The experiment in a line: Test C flooded paddy test. It counts as in vivo, Echinochloa crus-galli. Conditions: Flood. An outline of the steps: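 Visual ratings from 0, no effect, to 100, complete control, were made against untreated controls after 13–15 greenhouse days. Compounds had gone straight into paddy water 3 cm above the soil, kept at that depth, on 2-leaf-stage plants.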

The test system of test [2] is crabgrass, large. Nature of the test: Test C pre-/postemergence herbicide test. It counts as in vivo, Digitaria sanguinalis. The source says:
Seeds of plant species selected from blackgrass (Alopecurus myosuroides), ryegrass, Italian (Italian ryegrass, Lolium multiflorum), wheat (winter wheat, Triticum aestivum), galium (catchweed bedstraw, Galium aparine), corn (Zea mays), crabgrass, large (large crabgrass, Digitaria sanguinalis), foxtail, giant (giant foxtail, Setaria faberii), johnsongrass (Sorghum halepense), lambsquarters (Chenopodium album), morningglory (Ipomoea coccinea), nutsedge, yellow (yellow nutsedge, Cyperus esculentus), pigweed (Amaranthus retroflexus), ragweed (common ragweed, Ambrosia elatior), soybean (Glycine max), barnyardgrass (Echinochloa crus-galli), oilseed rape (Brassica napus), waterhemp (common waterhemp, Amaranthus rudis), kochia (Kochia scoparia), oat, wild (wild oat, Avena fatua), surinam grass (Brachiaria decumbens), foxtail, green (green foxtail, Setaria viridis), goosegrass (Eleusine indica), bromegrass, downy (downy bromegrass, Bromus tectorum), nightshade (eastern black nightshade, Solanum ptycanthum), cocklebur (common cocklebur, Xanthium strumarium), cupgrass, woolly (woolly cupgrass, Eriochloa villosa), bermudagrass (Cynodon dactylon), sunflower, (common oilseed sunflower, Helianthus annuus), Russian thistle (Salsola kali) and velvetleaf (Abutilon theophrasti) were planted into a blend of loam soil and sand and treated preemergence with test chemicals formulated in a non-phytotoxic solvent mixture which included a surfactant. At the same time, plants selected from these crop and weed species and also barley (winter barley, Hordeum vulgare), […]), chickweed (common chickweed, Stellaria media), deadnettle (henbit deadnettle, Lamium amplexicaule), and canarygrass (littleseed canarygrass, Phalaris minor) were planted in pots containing Redi-Earth® planting medium (Scotts Company, 14111 Scottslawn Road, Marysville, Ohio 43041) comprising spaghnum peat moss, vermiculite, wetting agent and starter nutrients and treated with postemergence applications of test chemicals formulated in the same manner. Plants ranged in height from 2 to 18 cm (1- to 4-leaf stage) for postemergence treatments. Treated plants and controls were maintained in a greenhouse for 13 to 15 days, after which time all species were compared to controls and visually evaluated. Plant response ratings, summarized in Table C, are based on a scale of 0 to 100 where 0 is no effect and 100 is complete control. A dash (-) response means no test result.

The mark [3] stands for this setting: Postemergence, 125 g ai/ha, 0 to 100 scale, 0 no effect, 100 complete control.
Setting [4] is: Postemergence, 500 g ai/ha, 0 to 100 scale (0 no effect, 100 complete control).
[5] abbreviates: Preemergence, 125 g ai/ha, visual rating on 0 to 100 scale (0 no effect, 100 complete control).
Setting [6] is: preemergence, 500 g ai/ha, 0 to 100 scale.
Where [7] appears, read: 31 g ai/ha, scale of 0 to 100 where 0 is no effect and 100 is complete control, 13 to 15 days.
[8] abbreviates: 62 g ai/ha, scale of 0 to 100 where 0 is no effect and 100 is complete control, 13 to 15 days.
Setting [9] is: 125 g ai/ha, scale of 0 to 100 where 0 is no effect and 100 is complete control, 13 to 15 days.
[10] abbreviates: Preemergence, 31 g ai/ha, scale 0 to 100, 0 is no effect and 100 is complete control.
Setting [11] is: Preemergence, 125 g ai/ha, scale 0 to 100 (0 no effect, 100 complete control).

Take `O=C1NCC(c2cccc(C(F)(F)F)c2)C1C(=O)Nc1ccccc1F` (racemic) [Compound 3]: the “Plant response rating, Crabgrass, Large” value worked out at 70 in the test on crabgrass, large [1] (setting [3]); 80 in the test on crabgrass, large [1] (setting [4]); 90 in the test on crabgrass, large [1] (setting [6]). Moreover, the “Crabgrass, Large plant response rating” value in the test with crabgrass, large [1] (setting [5]) is 90. The “Plant response rating, Morningglory” value in the test on morningglory (Postemergence, 0 to 100 scale (0 no effect, 100 complete control)) was found to be 30; in the test with morningglory (preemergence, 0 to 100 scale) it was 0. The “Morningglory plant response rating” value with morningglory (setting [5]) came to 0. In addition, the “Plant response rating, Wheat” value in the test with wheat (setting [4]) was determined as 50; in the test with wheat (setting [6]), 60. Also, the “Wheat plant response rating” value in the test on wheat (setting [5]) is on record as 40. Further, the “Plant response rating, Barnyardgrass” value in the test with barnyardgrass (setting [7]) stood at 0; in the test on barnyardgrass (setting [8]) it was 20; in the test with barnyardgrass (setting [9]), 40; with barnyardgrass (250 g ai/ha, scale 0 to 100) it was 55.

Consider `O=C1NCC(c2ccc(F)cc2)C1C(=O)Nc1cccc(F)c1F` (racemic) [Compound 119], for which the “Plant response rating, Wheat” value with wheat (setting [3]) came out at 20. For the same compound, in the test on wheat (Postemergence, 500 g ai/ha), the “Wheat plant response rating (0 to 100 scale, 0 is no effect, 100 is complete control)” value was found to be 70. For the same compound, the “Plant response rating, Crabgrass, Large” value stood at 55 in the test on crabgrass, large [2] (Postemergence, 31 g ai/ha, scale 0 to 100 (0 no effect, 100 complete control)); 65 in the test on crabgrass, large [2] (Postemergence, 62 g ai/ha, scale 0 (no effect) to 100 (complete control)); 80 in the test on crabgrass, large [2] (Postemergence, 125 g ai/ha, scale 0 to 100 (0 no effect, 100 complete control)); 90 with crabgrass, large [2] (Postemergence, 250 g ai/ha, scale 0 to 100 (0 no effect, 100 complete control)); 98 with crabgrass, large [2] (Preemergence, 62 g ai/ha, scale 0 to 100); 100 in the test with crabgrass, large [2] (setting [11]). Besides, the “Crabgrass, Large plant response rating” value in the test with crabgrass, large [2] (setting [10]) is on record as 98. The “Plant response rating (scale of 0 to 100), Crabgrass, Large” value with crabgrass, large [2] (Preemergence, 250 g ai/ha) stood at 100. Further, the “Plant response rating, Barnyardgrass” value with barnyardgrass (setting [7]) worked out at 30; with barnyardgrass (setting [8]) it was 50; in the test on barnyardgrass (setting [9]), 60; in the test with barnyardgrass (250 g ai/ha, scale 0 to 100), 75.

For the compound `O=C1NCC(c2cccc(C(F)F)c2)C1C(=O)Nc1cccc(F)c1F` (racemic) [Compound 211], the “Plant response rating, Wheat” value with wheat (Postemergence, 125 g ai/ha, 0 to 100 scale, 0 is no effect, 100 is complete control) worked out at 30. Also, the “Wheat plant response rating (0 to 100 scale, 0 is no effect, 100 is complete control)” value in the test on wheat (Postemergence, 500 g ai/ha) stood at 80. Moreover, the “Crabgrass, Large plant response rating” value with crabgrass, large [2] (setting [10]) is given as 100; in the test on crabgrass, large [2] (Preemergence, 62 g ai/ha, scale 0 to 100 (0 no effect, 100 complete control)), 95. The “Plant response rating, Crabgrass, Large” value in the test with crabgrass, large [2] (setting [11]) came out at 95. In addition, the “Plant response rating (scale of 0 to 100), Crabgrass, Large” value in the test on crabgrass, large [2] (Preemergence, 250 g ai/ha) is recorded as 95. For the same compound, the “Plant response rating, Barnyardgrass” value with barnyardgrass (setting [9]) is on record as 0; in the test on barnyardgrass (250 g ai/ha, scale of 0 to 100 where 0 is no effect and 100 is complete control, 13 to 15 days) it was 50; in the test with barnyardgrass (500 g ai/ha, scale 0 to 100), 55; with barnyardgrass (1000 g ai/ha, scale 0 to 100), 80.
